Consider 36 compounds from patent publication US20240246969A1, “HETEROCYCLIC DERIVATIVES AS CAMKK2 INHIBITORS” (Bristol-Myers Squibb Company, priority 2021, published 2024).

For the assay, the target named is CaMKK2 (Homo sapiens, UniProt Q96RR4). In words: CaMKK2 binding assay (LanthaScreen TR-FRET). As to the method: The ability of test compounds to bind and inhibit the activity of CaMKK2 were determined using a binding assay using LanthaScreent (Thermofisher) detection reagents in a 384-well plate format using the following assay buffer: 50 mM HEPES (pH7.5), 10 mM MgCl2, 1 mM EGTA, and 0.01% Brij-35.
Sequence of CaMKK2 (Q96RR4 whole entry): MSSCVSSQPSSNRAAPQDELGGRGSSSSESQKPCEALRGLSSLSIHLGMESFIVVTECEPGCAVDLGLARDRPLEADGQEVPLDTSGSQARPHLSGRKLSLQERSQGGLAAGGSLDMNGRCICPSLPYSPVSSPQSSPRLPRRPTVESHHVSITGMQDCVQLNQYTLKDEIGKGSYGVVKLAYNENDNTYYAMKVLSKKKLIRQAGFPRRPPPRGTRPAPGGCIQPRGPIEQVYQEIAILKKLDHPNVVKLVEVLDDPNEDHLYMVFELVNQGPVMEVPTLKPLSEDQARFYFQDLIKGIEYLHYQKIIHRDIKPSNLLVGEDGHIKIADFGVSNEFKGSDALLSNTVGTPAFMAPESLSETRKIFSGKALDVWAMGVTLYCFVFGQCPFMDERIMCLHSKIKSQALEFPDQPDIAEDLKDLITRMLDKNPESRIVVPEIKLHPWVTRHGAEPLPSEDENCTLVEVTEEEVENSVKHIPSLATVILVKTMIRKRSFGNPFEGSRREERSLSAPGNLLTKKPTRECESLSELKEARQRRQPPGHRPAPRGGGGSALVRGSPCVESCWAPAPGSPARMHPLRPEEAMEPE
A 10-point serial dilution of inhibitor compound in 0.5% DMSO was added to each well of the plate. The final assay volume in well was 15 uL. […] A ratio was calculated from the 2 readouts and fitted to a 4-parameter fit to determine the binding IC50.
For orientation: In TR-FRET formats the signal depends on donor and acceptor labels being close together.

Where two headings read alike, the source gives them in different places.

What is called IC50 is the midpoint of a concentration-inhibition curve. “2-((azetidin-3-ylmethyl)amino)-4-(3-(3,5-dimethylphenyl)-5H-pyrrolo[2,3-b]pyrazin-5-yl)benzoic Acid [Example 30]” gave an IC50 (binding IC50, 1 nM CaMKK2, 5 nM Kinase tracer 236, 20 minutes) of less than 100 nM.

`Cc1cc(C)cc(-c2cnc3ccn(-c4ccc(C(=O)O)c(C5CCNC5)c4)c3n2)c1` (single isomer, unassigned) [Example 26] displayed a half-inhibitory concentration (IC50) of less than 100 nM.

In the case of `Cc1cc(C)cc(-c2cnc3ccn(-c4ccc(C(=O)O)c(C5CCCNC5)c4)c3n2)c1` (single isomer, unassigned) [Example 28], the IC50 was less than 100 nM.

Turning to `O=C(O)c1ccc(-c2ccnc3cc(C4CC4)nn23)cc1C1CCCC1` [Example 2.1, 2-Cyclopentyl-4-(2-cyclopropylpyrazolo[1,5-a]pyrimidin-7-yl)benzoic Acid], the half-inhibitory concentration (IC50) was less than 100 nM.

In the case of `COc1cc2nccc(-c3ccc(C(=O)O)c(C4CCCC4)c3)n2n1` [Example 2.3, 2-Cyclopentyl-4-(2-methoxypyrazolo[1,5-a]pyrimidin-7-yl)benzoic Acid], the half-inhibitory concentration (IC50) is less than 100 nM.

For `CCOc1cc2nccc(-c3ccc(C(=O)O)c(C4CCCC4)c3)n2n1` [Example 2.4, 2-Cyclopentyl-4-(2-ethoxypyrazolo[1,5-a]pyrimidin-7-yl)benzoic Acid], the IC50 is less than 100 nM.

On to `O=C(O)c1ccc(-c2ccnc3cc(-c4ccc(F)cc4)nn23)cc1C1CCCC1` [Example 2.5, 2-Cyclopentyl-4-(2-(4-fluorophenyl)pyrazolo[1,5-a]pyrimidin-7-yl)benzoic Acid], for which the half-maximal inhibitory concentration (IC50) was less than 100 nM.

Compound `O=C(O)c1ccc(-c2ccnc3cc(-c4cccc(F)c4)nn23)cc1C1CCCC1` [Example 2.7, 2-Cyclopentyl-4-(2-(3-fluorophenyl)pyrazolo[1,5-a]pyrimidin-7-yl)benzoic Acid] had an IC50 of less than 100 nM.

In the case of `COc1ccc(-c2cc3nccc(-c4ccc(C(=O)O)c(C5CCCC5)c4)n3n2)cc1` [Example 2.8, 2-Cyclopentyl-4-(2-(4-methoxyphenyl)pyrazolo[1,5-a]pyrimidin-7-yl)benzoic Acid], the IC50 is less than 100 nM.

For the compound `COc1cccc(-c2cc3nccc(-c4ccc(C(=O)O)c(C5CCCC5)c4)n3n2)c1` [Example 2.9, 2-Cyclopentyl-4-(2-(3-methoxyphenyl)pyrazolo[1,5-a]pyrimidin-7-yl)benzoic Acid], the 50% inhibitory concentration (IC50) is less than 100 nM.

`Cn1cc(-c2cc3nccc(-c4ccc(C(=O)O)c(C5CCCC5)c4)n3n2)cn1` [Example 2.12, 2-Cyclopentyl-4-(2-(1-methyl-H-pyrazol-4-yl)pyrazolo[1,5-a]pyrimidin-7-yl)benzoic Acid] came in with an IC50 of less than 100 nM.

In the case of `COc1cc(-c2ccnc3cc(-c4ccc(F)cc4)nn23)ccc1C(=O)N[C@H](CO)c1ccccc1` [Example 2.13, (S)-4-(2-(4-Fluorophenyl)pyrazolo[1,5-a]pyrimidin-7-yl)-N-(2-hydroxy-1-phenylethyl)-2-methoxybenzamide], the half-maximal inhibitory concentration (IC50) was less than 100 nM.

As for `Cc1cc(-n2cc3ncc(F)c(-c4ccc(C(=O)O)c(C5CCCC5)c4)c3n2)cc(C(F)(F)F)c1` [Example 3.8, 2-Cyclopentyl-4-(6-fluoro-2-(3-methyl-5-(trifluoromethyl)phenyl)-2H-pyrazolo[4,3-b]pyridin-7-yl)benzoic Acid], the IC50 is less than 100 nM.

In the case of `O=C(O)c1ccc(-c2c(F)cnc3cn(-c4cc(F)cc(Cl)c4)nc23)cc1C1CCCC1` [Example 3.10, 4-(2-(3-Chloro-5-fluorophenyl)-6-fluoro-2H-pyrazolo[4,3-b]pyridin-7-yl)-2-cyclopentylbenzoic Acid], the IC50 was less than 100 nM.

For `Cc1cc(F)cc(-n2cc3ncc(F)c(-c4ccc(C(=O)O)c(C5CCCC5)c4)c3n2)c1` [Example 3.11, 2-Cyclopentyl-4-(6-fluoro-2-(3-fluoro-5-methylphenyl)-2H-pyrazolo[4,3-b]pyridin-7-yl)benzoic Acid], the IC50 was less than 100 nM.

Turning to `COc1cc(-n2cc3ncc(F)c(-c4ccc(C(=O)O)c(C5CCCC5)c4)c3n2)cc(C(F)(F)F)c1` [Example 3.13, 2-Cyclopentyl-4-(6-fluoro-2-(3-methoxy-5-(trifluoromethyl)phenyl)-2H-pyrazolo[4,3-b]pyridin-7-yl)benzoic Acid], the IC50 was less than 100 nM.

Consider `O=C(O)c1ccc(-c2c(F)cnc3cn(-c4cc(F)cc(C(F)(F)F)c4)nc23)cc1C1CCCC1` [Example 3.14, 2-Cyclopentyl-4-(6-fluoro-2-(3-fluoro-5-(trifluoromethyl)phenyl)-2H-pyrazolo[4,3-b]pyridin-7-yl)benzoic Acid], for which the IC50 was less than 100 nM.

In turn, `O=C(O)c1ccc(-c2c(F)cnc3cn(-c4cc(Cl)cc(C(F)(F)F)c4)nc23)cc1C1CCCC1` [Example 3.15, 4-(2-(3-Chloro-5-(trifluoromethyl)phenyl)-6-fluoro-2H-pyrazolo[4,3-b]pyridin-7-yl)-2-cyclopentylbenzoic] had an IC50 of less than 100 nM.

Take `COc1cc(-c2ccnc3cn(-c4ccc(F)cc4)nc23)ccc1C(=O)N[C@H](CO)c1ccccc1` [Example 3.19, (S)-4-(2-(4-fluorophenyl)-2H-pyrazolo[4,3-b]pyridin-7-yl)-N-(2-hydroxy-1-phenylethyl)-2-methoxybenzamide]: the IC50 is less than 100 nM.

The compound `N#CNC(=O)c1ccc(-c2ccnc3cn(-c4ccc(F)cc4)nc23)cc1C1CCCC1` [Example 3.20, N-Cyano-2-cyclopentyl-4-(2-(4-fluorophenyl)-2H-pyrazolo[4,3-b]pyridin-7-yl)benzamide] gave a half-inhibitory concentration (IC50) of less than 100 nM.

Compound `O=C(O)c1ccc(-c2c(F)cnc3cn(-c4ccc(F)cc4)nc23)cc1NC1CC1` [Example 3.21, 2-(Cyclopropylamino)-4-(6-fluoro-2-(4-fluorophenyl)-2H-pyrazolo[4,3-b]pyridin-7-yl)benzoic Acid] yielded an IC50 of less than 100 nM.

For `Cc1cccc(-c2cnc3ccn(-c4ccc(C(=O)O)c(C5CCCC5)c4)c3n2)c1` [Example 4, 2-Cyclopentyl-4-(3-(m-tolyl)-5H-pyrrolo[2,3-b]pyrazin-5-yl)benzoic Acid], the IC50 is less than 100 nM.

On to `Cc1cccc(-c2cc3c(-c4ccc(C(=O)O)c(C5CCCC5)c4)ccnn3c2)c1` [Example 4.2, 2-Cyclopentyl-4-[6-(m-tolyl)pyrrolo[1,2-b]pyridazin-4-yl]benzoic Acid], for which the half-maximal inhibitory concentration (IC50) was less than 100 nM.

`O=C(O)c1ccc(-c2ccnn3cc(-c4ccccc4F)cc23)cc1C1CCCC1` [Example 4.3, 2-Cyclopentyl-4-[6-(2-fluorophenyl)pyrrolo[1,2-b]pyridazin-4-yl]benzoic Acid] showed a half-maximal inhibitory concentration (IC50) of less than 100 nM.

As for `Cn1ncc2cc(-c3cnc4ccn(-c5ccc(C(=O)O)c(NCC6CC6)c5)c4n3)c(F)cc21` [Example 8, 2-((Cyclopropylmethyl)amino)-4-(3-(6-fluoro-1-methyl-1H-indazol-5-yl)-5H-pyrrolo[2,3-b]pyrazin-5-yl)benzoic Acid], the IC50 was less than 100 nM.

In turn, `O=C(O)c1ccc(-n2ccc3ncc(-c4ccc(F)cc4F)nc32)cc1NC1CC1` [Example 10, 2-(Cyclopropylamino)-4-(3-(2,4-difluorophenyl)-5H-pyrrolo[2,3-b]pyrazin-5-yl)benzoic Acid] displayed an IC50 of less than 100 nM.

Regarding `O=C(O)c1ccc(-n2ccc3ncc(-c4ccc(F)cc4)nc32)cc1NCC1CC1` [Example 11, 2-((Cyclopropylmethyl)amino)-4-(3-(4-fluorophenyl)-5H-pyrrolo[2,3-b]pyrazin-5-yl)benzoic Acid], the half-maximal inhibitory concentration (IC50) was less than 100 nM.

As for `CCNc1cc(-n2ccc3ncc(-c4ccc5c(cnn5C)c4)nc32)ccc1C(=O)O` [Example 14, 2-(Ethylamino)-4-(3-(1-methyl-1H-indazol-5-yl)-5H-pyrrolo[2,3-b]pyrazin-5-yl)benzoic Acid], the IC50 was less than 100 nM.

With `O=C(O)c1ccc(-n2ccc3ncc(-c4ccc(F)cc4)nc32)cc1NC1CC1` [Example 15, 2-(Cyclopropylamino)-4-(3-(4-fluorophenyl)-5H-pyrrolo[2,3-b]pyrazin-5-yl)benzoic Acid], the half-maximal inhibitory concentration (IC50) is less than 100 nM.

With `CCNc1cc(-n2ccc3ncc(-c4ccc5cn(C)nc5c4)nc32)ccc1C(=O)O` [Example 16, 2-(Ethylamino)-4-(3-(2-methyl-2H-indazol-6-yl)-5H-pyrrolo[2,3-b]pyrazin-5-yl)benzoic Acid], the IC50 was less than 100 nM.

Consider `Cn1cc2ccc(-c3cnc4ccn(-c5ccc(C(=O)O)c(NCC6CC6)c5)c4n3)cc2n1` [Example 17, 2-((Cyclopropylmethyl)amino)-4-(3-(2-methyl-2H-indazol-6-yl)-5H-pyrrolo[2,3-b]pyrazin-5-yl)benzoic Acid], for which the concentration for half-maximal inhibition (IC50) was less than 100 nM.

In turn, `O=C(NS(=O)(=O)C(F)(F)F)c1ccc(-n2ccc3ncc(C4CC4)nc32)cc1C1CCCC1` [Example 21, 2-Cyclopentyl-4-(3-cyclopropyl-5H-pyrrolo[2,3-b]pyrazin-5-yl)-N-((trifluoromethyl)sulfonyl)benzamide] showed an IC50 of 100 to 1000 nM.

Take `N#Cc1ccc(-n2ccc3ncc(-c4ccccc4)nc32)cc1C1CCCC1` [Example 22, 2-Cyclopentyl-4-(3-phenyl-5H-pyrrolo[2,3-b]pyrazin-5-yl)benzonitrile]: the IC50 lay in the range of 1000 to 10000 nM.

On to `c1ccc(-c2cnc3ccn(-c4ccc(-c5nn[nH]n5)c(C5CCCC5)c4)c3n2)cc1` [Example 23, 5-(3-Cyclopentyl-4-(2H-tetrazol-5-yl)phenyl)-3-phenyl-5H-pyrrolo[2,3-b]pyrazine], for which the half-inhibitory concentration (IC50) was less than 100 nM.

Regarding `Cc1cc(C)cc(-c2cnc3ccn(-c4ccc(C(=O)O)c(NC5CNC5)c4)c3n2)c1` [Example 25, 2-(azetidin-3-ylamino)-4-(3-(3,5-dimethylphenyl)-5H-pyrrolo[2,3-b]pyrazin-5-yl)benzoic Acid], the concentration for half-maximal inhibition (IC50) is less than 100 nM.

In the case of `Cc1cc(C)cc(-c2cnc3ccn(-c4ccc(C(=O)O)c(CC5CNC5)c4)c3n2)c1` [Example 27, 2-(azetidin-3-ylmethyl)-4-(3-(3,5-dimethylphenyl)-5H-pyrrolo[2,3-b]pyrazin-5-yl) benzoic Acid], the IC50 is less than 100 nM.
